# In ChEMBL document CHEMBL2203030, “Synthesis, characterization, antidepressant and antioxidant activity of novel piperamides bearing piperidine and piperazine analogues” (Bioorg Med Chem Lett, 2012):
# Experiments:
# Mus musculus [1] = test: Antidepressant activity in Swiss albino mouse assessed as mean immobility time measured during last 4 mins of single 6 mins test session at 20 mg/kg, po by forced swim test (reference value: 75.33 +/- 3.35 secs); format: functional
# Mus musculus [2] = test: Antidepressant activity in Swiss albino mouse assessed as mean immobility time measured during 6 mins period at 20 mg/kg, po administered 30 mins before test by tail suspension test (reference value: 185.7 +/- 5.33 secs); format: functional
# [3] = molecular target: T1, Amine oxidase [flavin-containing] A (Mus musculus, UniProt Q64133); test: Inhibition of MAOA in mouse brain mitochondrial fraction assessed as enzyme activity per mg of protein using 5-HT substrate incubated for 20 mins by UV-spectrophotometry; format: tissue-based
# T1 sequence (Q64133 whole entry): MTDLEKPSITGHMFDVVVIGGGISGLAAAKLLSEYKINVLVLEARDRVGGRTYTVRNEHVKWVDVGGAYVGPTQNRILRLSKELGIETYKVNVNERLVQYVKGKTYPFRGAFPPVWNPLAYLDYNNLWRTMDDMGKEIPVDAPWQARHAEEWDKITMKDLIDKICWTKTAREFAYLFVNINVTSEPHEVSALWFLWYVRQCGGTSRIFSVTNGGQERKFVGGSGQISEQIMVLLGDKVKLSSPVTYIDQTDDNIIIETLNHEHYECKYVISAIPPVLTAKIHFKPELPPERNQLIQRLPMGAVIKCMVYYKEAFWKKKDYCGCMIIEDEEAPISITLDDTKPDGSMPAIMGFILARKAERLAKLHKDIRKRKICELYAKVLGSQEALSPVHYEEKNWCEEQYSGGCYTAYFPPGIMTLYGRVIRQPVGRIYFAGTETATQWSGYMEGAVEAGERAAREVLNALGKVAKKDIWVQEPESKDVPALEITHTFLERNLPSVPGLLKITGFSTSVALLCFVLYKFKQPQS
# [4] = molecular target: T2, Amine oxidase [flavin-containing] B (Mus musculus, UniProt Q8BW75); test: Inhibition of MAOB in mouse brain mitochondrial fraction assessed as enzyme activity per mg of protein using beta-PEA substrate incubated for 20 mins by UV-spectrophotometry; format: tissue-based
# T2 sequence (Q8BW75 whole entry): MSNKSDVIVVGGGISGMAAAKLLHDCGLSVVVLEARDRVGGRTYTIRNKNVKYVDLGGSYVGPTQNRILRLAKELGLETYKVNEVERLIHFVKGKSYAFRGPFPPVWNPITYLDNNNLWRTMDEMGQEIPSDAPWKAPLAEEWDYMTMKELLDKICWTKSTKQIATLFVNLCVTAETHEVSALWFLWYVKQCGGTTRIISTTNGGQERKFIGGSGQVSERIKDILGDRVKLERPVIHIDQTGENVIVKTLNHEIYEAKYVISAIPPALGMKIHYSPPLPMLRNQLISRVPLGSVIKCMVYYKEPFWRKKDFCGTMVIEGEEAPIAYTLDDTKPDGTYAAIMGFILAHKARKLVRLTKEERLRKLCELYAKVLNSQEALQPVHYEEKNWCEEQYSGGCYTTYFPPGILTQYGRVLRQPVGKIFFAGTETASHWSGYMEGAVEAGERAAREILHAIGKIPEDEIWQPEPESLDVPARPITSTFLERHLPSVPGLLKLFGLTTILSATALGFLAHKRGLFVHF
# Aspergillus flavus [5] = test: Antimicrobial activity against Aspergillus flavus NCIM 524 by broth dilution method; format: functional
# Staphylococcus aureus [6] = test: Antimicrobial activity against Staphylococcus aureus NCIM 5021 at 100 ug/mL incubated for 24 hrs by agar disc diffusion method; format: functional; conditions: NCIM 5021, 24 h, read-out: IZ
# Candida albicans [7] = test: Antimicrobial activity against Candida albicans NCIM 3471 by broth dilution method; format: functional
# Pseudomonas aeruginosa [8] = test: Antimicrobial activity against Pseudomonas aeruginosa NCIM 5029 at 100 ug/mL incubated for 24 hrs by agar disc diffusion method; format: functional; conditions: NCIM 5029, 24 h, read-out: IZ
# Candida albicans [9] = test: Antimicrobial activity against Candida albicans NCIM 3471 at 100 ug/mL incubated for 48 hrs by agar disc diffusion method; format: functional; conditions: NCIM 3471, 48 h, read-out: IZ
# Aspergillus flavus [10] = test: Antimicrobial activity against Aspergillus flavus NCIM 524 at 100 ug/mL incubated for 48 hrs by agar disc diffusion method; format: functional; conditions: NCIM 524, 48 h, read-out: IZ
# Pseudomonas aeruginosa [11] = test: Antimicrobial activity against Pseudomonas aeruginosa NCIM 5029 by broth dilution method; format: functional
# [12] = tested on: Radical scavenging activity; test: Antioxidant activity assessed as DPPH free radical scavenging activity by spectrophotometry; format: functional
# Bacillus subtilis [13] = test: Antimicrobial activity against Bacillus subtilis NCIM 2999 at 100 ug/mL incubated for 24 hrs by agar disc diffusion method; format: functional; conditions: NCIM 2999, 24 h, read-out: IZ
# Bacillus subtilis [14] = test: Antimicrobial activity against Bacillus subtilis NCIM 2999 by broth dilution method; format: functional
# [15] = Antioxidant activity assessed as superoxide scavenging activity using xanthine-xanthine oxidase system by NBT dye reduction based assay; format: functional
# Staphylococcus aureus [16] = test: Antimicrobial activity against Staphylococcus aureus NCIM 5021 by broth dilution method; format: functional
# Escherichia coli [17] = test: Antimicrobial activity against Escherichia coli NCIM 2574 by broth dilution method; format: functional
# Escherichia coli [18] = test: Antimicrobial activity against Escherichia coli NCIM 2574 at 100 ug/mL incubated for 24 hrs by agar disc diffusion method; format: functional; conditions: NCIM 2574, 24 h, read-out: IZ
# Bacillus subtilis [19] = test: Antimicrobial activity against Bacillus subtilis NCIM 2999 at 10 ug/disc incubated for 24 hrs by agar disc diffusion method; format: functional; conditions: NCIM 2999, 24 h, read-out: IZ
# Escherichia coli [20] = test: Antimicrobial activity against Escherichia coli NCIM 2574 at 10 ug/disc incubated for 24 hrs by agar disc diffusion method; format: functional; conditions: NCIM 2574, 24 h, read-out: IZ
# Staphylococcus aureus [21] = test: Antimicrobial activity against Staphylococcus aureus NCIM 5021 at 10 ug/disc incubated for 24 hrs by agar disc diffusion method; format: functional; conditions: NCIM 5021, 24 h, read-out: IZ
# Pseudomonas aeruginosa [22] = test: Antimicrobial activity against Pseudomonas aeruginosa NCIM 5029 at 10 ug/disc incubated for 24 hrs by agar disc diffusion method; format: functional; conditions: NCIM 5029, 24 h, read-out: IZ
Structure (SMILES),MIC (Aspergillus flavus [5]) [µg/mL],MIC (Candida albicans [7]) [µg/mL],MIC (Pseudomonas aeruginosa [11]) [µg/mL],IC50 [12] [µg/mL],MIC (Bacillus subtilis [14]) [µg/mL],IC50 [15] [µg/mL],MIC (Staphylococcus aureus [16]) [µg/mL],MIC (Escherichia coli [17]) [µg/mL],Time (Mus musculus [1]) [s],Time (Mus musculus [2]) [s],zone of inhibition at 100 µg/mL (Staphylococcus aureus [6]) [mm],zone of inhibition at 100 µg/mL (Pseudomonas aeruginosa [8]) [mm],zone of inhibition at 100 µg/mL (Candida albicans [9]) [mm],zone of inhibition at 100 µg/mL (Aspergillus flavus [10]) [mm],zone of inhibition at 100 µg/mL (Bacillus subtilis [13]) [mm],zone of inhibition at 100 µg/mL (Escherichia coli [18]) [mm],also measured
CN(C)CCCN1c2ccccc2CCc2ccccc21 [IMIPRAMINE],,,,,,,,,32.17,79.5,,,,,,,
C#CCN(C)CCCOc1ccc(Cl)cc1Cl [CLORGILINE],,,,,,,,,,,,,,,,,Activity [3]: 17.05 nmol; Activity [4]: 18.16 nmol
COc1cc(/C=C/C(=O)N2CCC(C)CC2)cc2c1OCO2,30,30,36,15.3,25,19.8,24,40,51.6,104.9,12,9,10,12,10,10,
COc1cc(/C=C/C(=O)N2CCCCC2)cc2c1OCO2,30,28,30,14.9,26,18.2,24,30,32.15,78.18,10,16,12.5,11,13,15,Activity [3]: 17.09 nmol; Activity [4]: 18.01 nmol

# Now from value to molecule, other results behind:
MIC (Aspergillus flavus [5]) [µg/mL],MIC (Candida albicans [7]) [µg/mL],MIC (Pseudomonas aeruginosa [11]) [µg/mL],IC50 [12] [µg/mL],MIC (Bacillus subtilis [14]) [µg/mL],IC50 [15] [µg/mL],MIC (Staphylococcus aureus [16]) [µg/mL],MIC (Escherichia coli [17]) [µg/mL],Structure (SMILES),Time (Mus musculus [1]) [s],Time (Mus musculus [2]) [s],zone of inhibition at 100 µg/mL (Staphylococcus aureus [6]) [mm],zone of inhibition at 100 µg/mL (Pseudomonas aeruginosa [8]) [mm],zone of inhibition at 100 µg/mL (Candida albicans [9]) [mm],zone of inhibition at 100 µg/mL (Aspergillus flavus [10]) [mm],zone of inhibition at 100 µg/mL (Bacillus subtilis [13]) [mm],zone of inhibition at 100 µg/mL (Escherichia coli [18]) [mm],also measured
15,14,20,19.3,15.5,18.5,15.2,22,COc1cc(/C=C/C(=O)N2CCN(c3ccccn3)CC2)cc2c1OCO2,67.6,148.5,14,17,11.4,10.9,12,11,
40,25,25,36.9,18,55.3,18.3,25,COc1cc(/C=C/C(=O)N2CCN(c3ccccc3)CC2)cc2c1OCO2,66.2,143.5,12,13,13.7,11,14,10,
,,5,,5,,5,5,CN[C@@H]1[C@H](O[C@H]2[C@H](O[C@H]3[C@H](O)[C@@H](O)[C@H](N=C(N)N)[C@@H](O)[C@@H]3N=C(N)N)O[C@@H](C)[C@]2(O)C=O)O[C@@H](CO)[C@H](O)[C@H]1O [STREPTOMYCIN],,,,,,,,,zone of inhibition at 10 µg/disc (Bacillus subtilis [19]): 10.4 mm; zone of inhibition at 10 µg/disc (Escherichia coli [20]): 14.5 mm; zone of inhibition at 10 µg/disc (Staphylococcus aureus [21]): 11.6 mm; zone of inhibition at 10 µg/disc (Pseudomonas aeruginosa [22]): 14 mm
